Our source for the Kd values is patent US20250388593A1 (MITSUBISHI TANABE PHARMA CORPORATION, priority 2023, published 2025).

Sequence of CRBN truncate (318-426) (Q96SW2 318-426): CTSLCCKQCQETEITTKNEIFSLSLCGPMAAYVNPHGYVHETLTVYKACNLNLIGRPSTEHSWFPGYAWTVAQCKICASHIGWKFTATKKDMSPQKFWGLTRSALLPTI

The experiment concerns the target CRBN truncate (318-426) (Homo sapiens (Human), UniProt Q96SW2). The experiment in a line: Measurement of molecular interactions using surface plasmon resonance (SPR), Biacore T200. The class given is binding. Conditions: 25° C., immobilized CRBN truncate, upper limit of measurement 200 μM. Summed up:
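Compound injections used 60 s association and 120 s dissociation in HEPES pH 7.5 buffer (150 mM NaCl, 1 mM TCEP, 0.005% Tween 20, 2% DMSO). The ligand was CRBN truncate 318-426 bearing a C-terminal Avi-tag, immobilised via streptavidin on an SA sensor chip.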
The term Kd denotes the constant that tells how readily two partners part at equilibrium. Low readings indicate a tighter complex, high ones a looser complex. With `Cc1sc2c(c1C)C(c1ccc(Cl)cc1)=N[C@@H](CC(=O)NCCCCCOc1ccc3nc(N4CC5(CC(=O)N(C6CCC(=O)NC6=O)C5=O)C4)sc3c1)c1nnc(C)n1-2` (stereo partly drawn) [Example 321, 2-[(9S)-7-(4-chlorophenyl)-4,5,13-trimethyl-3-thia-1,8,11,12-tetraazatricyclo[8.3.0.02,6]trideca-2(6),4,7,10,12-pentaen-9-yl]-N-[5-[[2-[6-(2,6-dioxopiperidin-3-yl)-5,7-dioxo-2,6-diazaspiro[3.4]octan-2-yl]-1,3-benzothiazol-6-yl]oxy]pentyl]acetamide], the Kd is below 50 µM.
Regarding `CC(C)(C)OC(=O)c1ccc(N2CCCC3(COCC(=O)NC3=O)C2)nc1` (centres unmarked) [Example 15, tert-Butyl 6-(10,12-dioxo-8-oxa-2,11-diazaspiro [5.6]dodecan-2-yl) pyridine-3-carboxylate], the Kd was at least 100 µM.
Regarding `COC(=O)c1cccc(CN2CCC3(CCCC(=O)NC3=O)C2)c1` (centres unmarked) [Example 33, Methyl 3-[(6,8-dioxo-2,7-diazaspiro[4.6]undecan-2-yl)methyl]benzoate], the Kd was at least 100 µM.
For the molecule `CC(C)(C)OC(=O)/C=C/c1nn(C2CCCC(=O)NC2=O)c2ccccc12` (centres unmarked) [Example 136], the Kd was 50 to 100 µM.
Consider “2-(3-Methyl-5-nitro-2-pyridyl)-2,7-diazaspiro[4.6]undecane-6,8-dione [Example 78]”, for which the Kd was at least 100 µM.
On to `CC(C)(C)OC(=O)NCCCCCCc1cccc2c(C(=O)N3CCC4(CCCC(=O)NC4=O)C3)cccc12` (centres unmarked) [Example 161, tert-Butyl N-[6-[5-(6,8-dioxo-2,7-diazaspiro[4.6]undecane-2-carbonyl)naphthalen-1-yl]hexyl]carbamate], for which the Kd fell in the range of 50 to 100 µM.
In the case of `O=C1NC(=O)C2(Nc3cccc(Br)c3)CCC1CC2` [Example 165, 1-(3-Bromoanilino)-3-azabicyclo [3.2.2]nonane-2,4-dione], the dissociation constant (Kd) was at least 100 µM.
For `CC(C)(C)OC(=O)c1ccc(N2CCC3(CC=CC(=O)NC3=O)C2)nc1` (centres unmarked) [Example 131, tert-Butyl 6-(6,8-dioxo-2,7-diazaspiro [4.6]undec-9-en-2-yl) pyridine-3-carboxylate], the Kd is at least 100 µM.
As to `Cn1c(C(=O)OC(C)(C)C)cc2c(N3CCC4(CCCC(=O)NC4=O)C3)ncnc21` (centres unmarked) [Example 180, tert-Butyl 4-(6,8-dioxo-2,7-diazaspiro[4.6]undecan-2-yl)-7-methylpyrrolo[2,3-d]pyrimidine-6-carboxylate], the Kd was in the range of 50 to 100 µM.
In turn, `C[C@@H]1Cc2c([nH]c3ccccc23)[C@@H](c2cnc(N3CCC(CN(C)CCCCCCCc4ccc(C(=O)N5CCC6(CCCC(=O)NC6=O)C5)cc4)CC3)nc2)N1CC(C)(C)F` (stereo partly drawn) [Example 361-2, 2-[4-[7-[[1-[5-[(1R,3R)-2-(2-fluoro-2-methyl-propyl)-3-methyl-1,3,4,9-tetrahydropyrido[3,4-b]indol-1-yl]pyrimidin-2-yl]-4-piperidyl]methyl-methyl-amino]heptyl]benzoyl]-2,7-diazaspiro[4.6]undecane-6,8-dione] came in with a Kd below 50 µM.
In the case of `CC(C)(C)OC(=O)NCCCNc1nccc(N2CCC3(CCCC(=O)NC3=O)C2)n1` (centres unmarked) [Example 185], the Kd is at least 100 µM.
Next, `Cn1nc(N2C=CCC(=O)NC2=O)c2ccc(/C=C/C(=O)OC(C)(C)C)cc21` [Example 287, tert-Butyl (E)-3-[3-(2,4-dioxo-5H-1,3-diazepin-1-yl)-1-methylindazol-6-yl]prop-2-enoate]: below 50 µM.
The molecule `COC(=O)c1cc2ncnc(N3CCC4(CCCC(=O)NC4=O)C3)c2s1` (centres unmarked) [Example 43, Methyl 4-(6,8-dioxo-2,7-diazaspiro[4.6]undecan-2-yl)thieno[3,2-d]pyrimidine-6-carboxylate] registered a Kd of 50 to 100 µM.
Take `CC(C)(C)OC(=O)NCCCCCCn1ccc2c(C(=O)N3CCC4(CCCC(=O)NC4=O)C3)cccc21` (centres unmarked) [Example 162, tert-Butyl N-[6-[4-(6,8-dioxo-2,7-diazaspiro [4.6]undecane-2-carbonyl)indol-1-yl]hexyl]carbamate]: the Kd lay in the range of 50 to 100 µM.
